In PMC11956013, “Structure–Activity Relationships and Evaluation of 2-(Heteroaryl-cycloalkyl)-1H-indoles as Tauopathy Positron Emission Tomography Radiotracers” (Journal of Medicinal Chemistry, 2025):
Where “and” joins values, the source holds several entries; their conditions need not be identical. Equal values may be shown once. Read-outs that look alike come from different tables or passages of the source. Blank lines part the entries; values can stand above or below the compound they belong to.

Legend:
[1] = target: T1, aggregated tau (mixed 3R/4R-tau) in AD brain tissue homogenates (Homo sapiens, UniProt P10636); experiment: In vitro competition (Ki) assay versus [^3H]8, AD brain tissue homogenate; assay type: binding; conditions: radioligand [^3H]8 ∼1 nM
Target sequence in this assay (P10636 623-708 limits assumed): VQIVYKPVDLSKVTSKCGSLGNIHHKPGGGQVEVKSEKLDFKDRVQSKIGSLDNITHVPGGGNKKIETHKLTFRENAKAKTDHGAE

[2] = target: T2, aggregated tau (4R-tau) in PSP brain tissue homogenates (Homo sapiens, UniProt P10636); experiment: In vitro competition (Ki) assay versus [^3H]8, PSP brain tissue homogenate; assay type: binding; conditions: radioligand [^3H]8 ∼1 nM
T2 construct: from tissue

[3] = target: T1, aggregated tau (mixed 3R/4R-tau) in AD brain tissue homogenates; experiment: In vitro competition (Ki) assay versus [^3H]7, AD brain tissue homogenate; assay type: binding; conditions: radioligand [^3H]7 ∼1 nM
Target sequence in this assay (P10636 623-695 limits assumed): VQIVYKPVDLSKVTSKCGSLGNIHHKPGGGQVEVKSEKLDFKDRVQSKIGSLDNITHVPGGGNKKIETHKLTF

[4] = target: T2, aggregated tau (4R-tau) in PSP brain tissue homogenates; experiment: In vitro competition (Ki) assay versus [^3H]7, PSP brain tissue homogenate; assay type: binding; conditions: radioligand [^3H]7 ∼1 nM
[5] = target: N neuronal alpha7 (h) (Homo sapiens, UniProt P36544); experiment: Eurofins panel: N neuronal alpha7 (h) (antagonist radioligand)
[6] = target: mGluR5 (h) (Homo sapiens, UniProt P41594); experiment: Eurofins panel: mGluR5 (h) (agonist radioligand); conditions: reference compound, mGluR5 (h)
[7] = target: T3, GABAB(B1b/B2) Human GABA B GPCR (Homo sapiens, UniProt Q9UBS5); experiment: GABAB(B1b/B2) Human GABA B GPCR Mass Spectrometry Binding (Antagonist Ligand) Assay, Cerep, assay 4699; conditions: Specific binding, reference compound
T3 construct: Eurofins (Cerep) assay 4699

[8] = target: T1, aggregated tau (mixed 3R/4R-tau) in AD brain tissue homogenates; experiment: In vitro competition (Ki) assay versus [^3H]75, AD brain tissue homogenate; assay type: binding; conditions: n = 3, mean ± SD
Target sequence in this assay (P10636 623-695 limits assumed): as above

[9] = target: T2, aggregated tau (4R-tau) in PSP brain tissue homogenates; experiment: In vitro competition (Ki) assay versus [^3H]75, PSP brain tissue homogenate; assay type: binding; conditions: n = 3, mean ± SD
[10] = target: T4, aggregated tau (3R-tau) in PiD brain tissue homogenates (Homo sapiens, UniProt P10636); experiment: In vitro competition (Ki) assay versus [^3H]75, PiD brain tissue homogenate; assay type: binding; conditions: n = 3, mean ± SD
T4 construct: or only 3R-tau aggregates (PiD middle frontal gyrus); from tissue; host or cells: post-mortem human PiD brain, middle frontal gyrus homogenate

[11] = target: aggregated tau (4R-tau) in CBD brain tissue homogenates (Homo sapiens, UniProt P10636); experiment: In vitro competition (Ki) assay versus [^3H]75, CBD brain tissue homogenate; assay type: binding; parameters: from tissue; host or cells: post-mortem human CBD brain, middle frontal gyrus homogenate
[12] = target: T5, PiB binding site on amyloid-β in AD brain tissue homogenates (Homo sapiens, UniProt P05067); experiment: In vitro competition (Ki) assay versus [^3H]PiB, AD brain tissue homogenate; conditions: radioligand [^3H]PiB
T5 construct: from tissue; host or cells: post-mortem human AD brain, middle frontal gyrus homogenate

[13] = target: GABAA1 (h) (alpha1,beta2,gamma2) (Homo sapiens, UniProt P14867+P47870); experiment: GABAA1 (h) (alpha1,beta2,gamma2) (agonist radioligand), Eurofins assay 3051
[14] = target: T6, alpha1A (h) (Homo sapiens, UniProt P35348); experiment: Eurofins panel: alpha1A (h) (antagonist radioligand); conditions: reference compound, alpha1A (h)
T6 sequence (P35348 1-466): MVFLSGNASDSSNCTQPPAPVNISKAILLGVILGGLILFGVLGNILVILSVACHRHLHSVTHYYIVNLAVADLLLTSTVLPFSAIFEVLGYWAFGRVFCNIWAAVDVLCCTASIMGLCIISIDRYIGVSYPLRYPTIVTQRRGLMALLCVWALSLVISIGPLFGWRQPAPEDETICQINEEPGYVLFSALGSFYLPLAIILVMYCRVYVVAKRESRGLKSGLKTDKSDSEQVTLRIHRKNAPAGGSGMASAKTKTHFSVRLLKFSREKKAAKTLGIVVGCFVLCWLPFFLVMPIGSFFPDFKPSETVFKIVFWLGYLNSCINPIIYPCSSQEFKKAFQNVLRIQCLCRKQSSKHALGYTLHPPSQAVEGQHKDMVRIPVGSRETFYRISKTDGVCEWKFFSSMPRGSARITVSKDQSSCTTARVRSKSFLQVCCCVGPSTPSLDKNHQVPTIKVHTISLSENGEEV

[15] = target: T7, OX2 (h) (Homo sapiens, UniProt O43614); experiment: Eurofins panel: OX2 (h) (agonist radioligand)
T7 sequence (O43614 1-444): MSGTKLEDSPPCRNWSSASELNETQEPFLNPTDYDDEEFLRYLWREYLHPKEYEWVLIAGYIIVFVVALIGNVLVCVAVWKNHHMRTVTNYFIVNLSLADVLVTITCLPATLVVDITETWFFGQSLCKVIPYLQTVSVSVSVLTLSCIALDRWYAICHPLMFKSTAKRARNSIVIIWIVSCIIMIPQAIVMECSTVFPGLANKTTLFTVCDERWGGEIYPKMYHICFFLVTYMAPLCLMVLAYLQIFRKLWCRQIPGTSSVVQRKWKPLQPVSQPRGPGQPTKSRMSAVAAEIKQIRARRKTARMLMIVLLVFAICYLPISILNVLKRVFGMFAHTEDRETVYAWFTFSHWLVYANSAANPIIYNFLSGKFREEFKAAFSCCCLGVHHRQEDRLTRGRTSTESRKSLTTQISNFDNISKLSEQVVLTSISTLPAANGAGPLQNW

[16] = target: T8, Glutamate (Non-Selective) Rat Ion Channel Glycine (Strychnine-Insensitive) (Rattus norvegicus, UniProt P35439); experiment: Glutamate (Non-Selective) Rat Ion Channel Glycine (Strychnine-Insensitive), Mass Spectrometry Binding, assay 5043; conditions: Specific binding, reference compound
T8 construct: Eurofins assay 5043

[17] = read-out: Concurrent IC50 (Specific binding), reference compound
[18] = read-out: Concurrent Ki (Specific binding), reference compound
[19] = read-out: Concurrent IC50, Specific binding
[20] = read-out: Concurrent Ki, Specific binding
[21] = AD brain tissue homogenate, radioligand [^3H]75
[22] = PSP brain tissue homogenate, radioligand [^3H]75
[23] = PiD brain tissue homogenate, radioligand [^3H]75
[24] = CBD brain tissue homogenate, radioligand [^3H]75, n = 3, mean ± SD

T5 sequence (P05067 672-713 limits assumed): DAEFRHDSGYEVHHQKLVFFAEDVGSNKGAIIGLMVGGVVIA
Sequence of GABAA1 (h) (alpha1,beta2,gamma2) (P18507 40-475): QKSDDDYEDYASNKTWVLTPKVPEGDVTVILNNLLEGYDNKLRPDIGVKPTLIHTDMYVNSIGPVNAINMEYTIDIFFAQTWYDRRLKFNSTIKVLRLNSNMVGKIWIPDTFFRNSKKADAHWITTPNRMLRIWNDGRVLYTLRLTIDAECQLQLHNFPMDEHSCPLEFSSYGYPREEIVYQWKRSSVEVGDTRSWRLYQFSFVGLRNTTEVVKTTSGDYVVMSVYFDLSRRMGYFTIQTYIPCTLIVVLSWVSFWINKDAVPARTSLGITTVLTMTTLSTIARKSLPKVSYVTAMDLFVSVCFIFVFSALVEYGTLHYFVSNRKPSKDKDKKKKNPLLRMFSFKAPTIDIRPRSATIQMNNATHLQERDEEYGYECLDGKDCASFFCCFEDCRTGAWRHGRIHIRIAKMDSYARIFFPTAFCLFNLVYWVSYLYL
Sequence of GABAA1 (h) (alpha1,beta2,gamma2) (P14867 28-456): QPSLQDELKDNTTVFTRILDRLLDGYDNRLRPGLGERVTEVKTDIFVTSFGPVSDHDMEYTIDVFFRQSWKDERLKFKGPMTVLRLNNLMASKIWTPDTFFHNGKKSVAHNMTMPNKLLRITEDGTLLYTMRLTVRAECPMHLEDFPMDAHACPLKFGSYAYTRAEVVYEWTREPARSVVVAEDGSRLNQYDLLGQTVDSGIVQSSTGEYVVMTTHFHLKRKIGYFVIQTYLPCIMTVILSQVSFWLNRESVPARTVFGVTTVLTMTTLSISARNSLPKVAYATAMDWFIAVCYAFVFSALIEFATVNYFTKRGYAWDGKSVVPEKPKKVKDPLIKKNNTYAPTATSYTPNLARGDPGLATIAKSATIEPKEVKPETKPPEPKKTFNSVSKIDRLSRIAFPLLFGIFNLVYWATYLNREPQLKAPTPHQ
Sequence of GABAA1 (h) (alpha1,beta2,gamma2) (P47870 25-512): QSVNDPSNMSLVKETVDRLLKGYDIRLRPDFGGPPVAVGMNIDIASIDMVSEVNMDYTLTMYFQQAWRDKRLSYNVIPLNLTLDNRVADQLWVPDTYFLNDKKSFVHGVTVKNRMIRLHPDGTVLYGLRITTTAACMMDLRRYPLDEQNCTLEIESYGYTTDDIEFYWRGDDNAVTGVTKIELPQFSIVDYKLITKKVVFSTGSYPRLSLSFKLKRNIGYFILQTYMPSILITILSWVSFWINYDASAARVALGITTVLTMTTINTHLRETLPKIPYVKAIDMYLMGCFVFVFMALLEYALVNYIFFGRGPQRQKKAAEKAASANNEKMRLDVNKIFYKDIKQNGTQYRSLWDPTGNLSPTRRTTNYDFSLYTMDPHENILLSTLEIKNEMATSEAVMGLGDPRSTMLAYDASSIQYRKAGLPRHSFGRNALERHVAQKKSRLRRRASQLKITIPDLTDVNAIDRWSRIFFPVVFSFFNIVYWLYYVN
T4 sequence (P10636 1-410 isoform P10636-5): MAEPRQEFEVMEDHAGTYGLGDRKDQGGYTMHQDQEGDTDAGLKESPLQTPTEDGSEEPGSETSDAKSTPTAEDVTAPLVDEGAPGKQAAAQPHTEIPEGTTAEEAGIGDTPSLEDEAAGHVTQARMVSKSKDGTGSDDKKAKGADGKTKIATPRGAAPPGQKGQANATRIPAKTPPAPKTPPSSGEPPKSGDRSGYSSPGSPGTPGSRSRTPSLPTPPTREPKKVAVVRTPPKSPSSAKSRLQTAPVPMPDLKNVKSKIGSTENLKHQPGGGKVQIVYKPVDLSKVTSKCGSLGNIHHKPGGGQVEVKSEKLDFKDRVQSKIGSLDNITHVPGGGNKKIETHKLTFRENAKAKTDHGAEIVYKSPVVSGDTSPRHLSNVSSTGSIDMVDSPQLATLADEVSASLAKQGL
Sequence of N neuronal alpha7 (h) (P36544 23-502): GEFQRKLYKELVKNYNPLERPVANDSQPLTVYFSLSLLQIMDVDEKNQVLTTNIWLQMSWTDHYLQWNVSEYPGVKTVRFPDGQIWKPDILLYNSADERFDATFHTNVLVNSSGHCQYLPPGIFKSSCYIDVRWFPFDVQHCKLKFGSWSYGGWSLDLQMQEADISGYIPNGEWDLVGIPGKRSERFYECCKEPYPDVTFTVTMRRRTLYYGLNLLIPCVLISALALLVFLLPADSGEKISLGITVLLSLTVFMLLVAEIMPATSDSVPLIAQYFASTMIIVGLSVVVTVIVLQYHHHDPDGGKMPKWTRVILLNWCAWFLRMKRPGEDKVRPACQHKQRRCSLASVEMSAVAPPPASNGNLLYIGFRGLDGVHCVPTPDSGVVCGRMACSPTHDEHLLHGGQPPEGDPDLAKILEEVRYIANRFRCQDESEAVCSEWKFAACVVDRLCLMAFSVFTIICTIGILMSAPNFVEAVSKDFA
T2 sequence (P10636 1-441 isoform P10636-8): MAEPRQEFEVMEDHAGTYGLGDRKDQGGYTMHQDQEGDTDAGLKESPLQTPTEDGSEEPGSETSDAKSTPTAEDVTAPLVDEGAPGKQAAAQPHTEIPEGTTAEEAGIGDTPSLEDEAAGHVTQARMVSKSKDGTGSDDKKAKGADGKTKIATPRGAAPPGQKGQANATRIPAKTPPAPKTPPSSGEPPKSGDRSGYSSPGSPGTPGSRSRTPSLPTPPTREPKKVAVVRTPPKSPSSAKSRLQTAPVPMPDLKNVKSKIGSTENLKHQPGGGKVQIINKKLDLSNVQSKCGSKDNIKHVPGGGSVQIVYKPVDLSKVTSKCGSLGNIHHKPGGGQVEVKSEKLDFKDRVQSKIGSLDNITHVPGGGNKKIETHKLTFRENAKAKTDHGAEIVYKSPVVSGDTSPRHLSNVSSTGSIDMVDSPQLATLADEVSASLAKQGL
Sequence of aggregated tau (4R-tau) in CBD brain tissue homogenates (P10636 1-441 isoform P10636-8): as above
T3 sequence (Q9UBS5 1-844 isoform Q9UBS5-2): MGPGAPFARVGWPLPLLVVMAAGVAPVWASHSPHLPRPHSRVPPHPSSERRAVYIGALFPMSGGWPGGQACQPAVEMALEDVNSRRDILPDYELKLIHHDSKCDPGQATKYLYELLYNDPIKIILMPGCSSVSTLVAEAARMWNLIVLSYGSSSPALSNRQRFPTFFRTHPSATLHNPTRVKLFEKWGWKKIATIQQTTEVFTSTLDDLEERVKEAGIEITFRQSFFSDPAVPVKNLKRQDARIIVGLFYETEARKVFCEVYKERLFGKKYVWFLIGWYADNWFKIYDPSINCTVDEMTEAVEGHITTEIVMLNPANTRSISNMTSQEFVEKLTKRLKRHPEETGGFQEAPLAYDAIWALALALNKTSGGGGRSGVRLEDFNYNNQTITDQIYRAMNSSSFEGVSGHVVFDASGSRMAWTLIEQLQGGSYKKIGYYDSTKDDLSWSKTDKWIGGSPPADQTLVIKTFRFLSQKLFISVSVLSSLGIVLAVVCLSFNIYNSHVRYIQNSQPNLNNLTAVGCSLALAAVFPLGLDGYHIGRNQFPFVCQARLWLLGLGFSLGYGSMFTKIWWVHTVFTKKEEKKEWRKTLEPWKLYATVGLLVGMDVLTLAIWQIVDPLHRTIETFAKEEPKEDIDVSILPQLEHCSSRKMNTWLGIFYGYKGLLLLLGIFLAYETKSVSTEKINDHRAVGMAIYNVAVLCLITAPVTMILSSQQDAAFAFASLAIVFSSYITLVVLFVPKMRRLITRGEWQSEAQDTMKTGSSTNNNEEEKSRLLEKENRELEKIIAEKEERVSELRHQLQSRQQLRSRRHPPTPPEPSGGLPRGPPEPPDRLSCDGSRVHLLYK
T3 sequence (O75899 42-941 partner): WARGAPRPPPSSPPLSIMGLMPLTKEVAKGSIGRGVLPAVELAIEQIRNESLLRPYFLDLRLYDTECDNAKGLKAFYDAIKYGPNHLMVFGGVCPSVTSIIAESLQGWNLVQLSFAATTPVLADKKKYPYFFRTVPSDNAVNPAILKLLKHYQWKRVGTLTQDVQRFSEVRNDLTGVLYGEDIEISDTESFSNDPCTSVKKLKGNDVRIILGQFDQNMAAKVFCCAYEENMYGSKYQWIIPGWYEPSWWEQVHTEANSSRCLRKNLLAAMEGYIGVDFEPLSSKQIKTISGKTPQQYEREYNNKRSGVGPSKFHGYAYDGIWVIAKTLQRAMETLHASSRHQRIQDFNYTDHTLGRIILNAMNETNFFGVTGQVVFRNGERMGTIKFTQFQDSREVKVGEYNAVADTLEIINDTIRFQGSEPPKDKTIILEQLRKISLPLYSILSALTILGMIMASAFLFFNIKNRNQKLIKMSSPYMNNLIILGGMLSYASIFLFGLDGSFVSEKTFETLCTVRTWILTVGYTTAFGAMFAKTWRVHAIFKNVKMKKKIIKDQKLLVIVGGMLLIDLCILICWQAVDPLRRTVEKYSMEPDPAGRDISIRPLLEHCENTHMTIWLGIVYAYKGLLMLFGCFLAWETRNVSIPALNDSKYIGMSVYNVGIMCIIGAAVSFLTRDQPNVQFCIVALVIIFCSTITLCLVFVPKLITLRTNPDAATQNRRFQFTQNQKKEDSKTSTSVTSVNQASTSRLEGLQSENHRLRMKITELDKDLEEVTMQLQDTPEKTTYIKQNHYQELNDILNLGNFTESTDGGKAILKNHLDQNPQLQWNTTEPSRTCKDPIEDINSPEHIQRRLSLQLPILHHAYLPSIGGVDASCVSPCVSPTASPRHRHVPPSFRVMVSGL

Compound: OC1CN(c2ncc(-c3cc4ccccc4[nH]3)cn2)CC1F (stereo not shown) [Compound 28, 1-(5-(1H-Indol-2-yl)pyrimidin-2-yl)-4-fluoropyrrolidin-3-ol]
Ki [3]: 39 nM
Ki [4]: 32 nM
Ki [1]: 34 nM
Ki [2]: 31 nM

Compound: Clc1ccc(C2CC3CCC2N3)cn1 (racemic) [(±)epibatidine]
IC50 [5, 17]: 145 nM
Ki [5, 18]: 127 nM
nH, Specific binding ([5]; reference compound): 1.959

Compound: N[C@@H](Cn1oc(=O)[nH]c1=O)C(=O)O [L-Quisqualate]
IC50 [6, 19]: 42.6 nM
Ki [6, 20]: 11.1 nM
nH, Specific binding [6]: 1.174

Compound: N#Cc1ccc2cc(-c3cnc(N4CC(O)C(F)C4)nc3)[nH]c2c1 (stereo not shown) [Compound 24, 2-(2-(3-Fluoro-4-hydroxypyrrolidin-1-yl)pyrimidin-5-yl)-1H-indole-6-carbonitrile]
Ki [3]: 120 nM
Ki [4]: 129 nM
Ki [1]: 74 nM
Ki [2]: 76 nM

Compound: Fc1ccc2cc(-c3cnc(N4CCC(F)(F)CC4)nc3)[nH]c2c1 [Compound 23, 2-(2-(4,4-Difluoropiperidin-1-yl)pyrimidin-5-yl)-6-fluoro-1H-indole]
Ki [3]: 37 nM
Ki [4]: 23 nM

Compound: CCOC(OCC)P(=O)(O)CCCNCc1ccc(Cl)c(Cl)c1 [CGP 52432]
nH [7]: 0.6729
IC50 ([7]; read-out: Concurrent IC50): 40.7 nM
Ki ([7]; read-out: Concurrent Ki): 33.9 nM

Compound: OCC1CCN(c2ccc(-c3cc4cc(O)ccc4[nH]3)c(F)n2)CC1 [Compound 5]
Ki [8, 21]: 1210 ± 47 nM
Ki [9, 22]: 566 ± 42 nM
Ki [10, 23]: 575 ± 36 nM
Ki [11, 24]: 572 ± 32 nM

Compound: Nc1c(F)ccc2cnc(-n3ccc4ccncc43)cc12 [Compound 4, florquinitau]
Ki [8, 21]: 240 ± 6 nM
Ki [9, 22]: 780 ± 32 nM
Ki [10, 23]: 656 ± 36 nM
Ki [11, 24]: 888 ± 32 nM

Compound: NCc1cc(=O)[nH]o1 [muscimol]
IC50 [13]: 59.1 nM
Ki [13]: 39.4 nM
nH ([13]; Specific binding, reference compound): 0.6998

Compound: COc1cccc(OC)c1OCCNCC1COc2ccccc2O1 (stereo not shown) [WB 4101]
IC50 [14, 19]: 0.378 nM
Ki [14, 20]: 0.189 nM
nH, Specific binding [14]: 1.2607

Compound: CNc1ccc(/C=C/C=C/c2nc3ccc(OCC(O)CF)cc3s2)cn1 (stereo not shown) [Compound 3, florzolotau]
Ki [8, 21]: ~86 nM and 86 nM
Ki [9, 22]: 123 ± 7 nM
Ki [10, 23]: 124 ± 3 nM
Ki [11, 24]: 106 ± 6 nM

Compound: orexin-B
IC50 [15, 17]: 0.198 nM
Ki [15, 18]: 0.182 nM
nH, Specific binding ([15]; reference compound): 0.7675

Compound: O=C(O)c1cc(=O)c2c(Cl)cc(Cl)cc2[nH]1 [5,7 dichlorokynurenic acid]
nH [16]: 0.8927
IC50 ([16]; read-out: Concurrent IC50): 44.5 nM
Ki ([16]; read-out: Concurrent Ki): 20.4 nM

Compound: Fc1cc(-c2ccc3c(n2)[nH]c2ccncc23)ccn1 [Compound 2]
Ki [8, 21]: 3020 ± 283 nM
Ki [10, 23]: 1970 ± 96 nM

Compound: Fc1ccc(-c2ccc3c(c2)[nH]c2ccncc23)cn1 [Compound 1, flortaucipir]
Ki ([8]; AD tissue, +10 μM Ro-41-1040 (MAO-A inhibitor) and 10 μM deprenyl (MAO-B inhibitor)): 1480 ± 53 nM
Ki ([9]; PSP tissue, +10 μM Ro-41-1040 (MAO-A inhibitor) and 10 μM deprenyl (MAO-B inhibitor)): 1860 ± 39 nM
Ki ([10]; PiD tissue, +10 μM Ro-41-1040 (MAO-A inhibitor) and 10 μM deprenyl (MAO-B inhibitor)): 1490 ± 26 nM
Ki [11]: 2130 ± 58 nM

Compound: Fc1ccc2cc(-c3cnc(N4CCCCC4)nc3)[nH]c2c1 [Compound 21, 6-Fluoro-2-(2-(piperidin-1-yl)pyrimidin-5-yl)-1H-indole]
Ki [12]: 49 nM

Now from value to compound:

Ki [1]: 17 nM
Ki [2]: 20 nM
Compound: Fc1ccc2cc(-c3ncc(N4CCOCC4)cc3F)[nH]c2c1 [Compound 104, 4-(5-Fluoro-6-(6-fluoro-1H-indol-2-yl)pyridin-3-yl)morpholine]

Ki [1]: 11 nM
Ki [2]: 12 nM
Compound: Fc1ccc2cc(-c3cnc(N4CCOCC4)cc3F)[nH]c2c1 [Compound 88, 4-(4-Fluoro-5-(6-fluoro-1H-indol-2-yl)pyridin-2-yl)morpholine]

Ki [3]: 22 nM
Ki [4]: 32 nM
Compound: Cn1c(-c2cnc(N3CCOCC3)nc2)cc2ccc(F)cc21 [Compound 109, 4-(5-(6-Fluoro-1-methyl-1H-indol-2-yl)pyrimidin-2-yl)morpholine]

Ki [12]: 70 nM
Compound: Fc1ccc2cc(-c3ccc(N4CCCCC4)nc3)[nH]c2c1 [Compound 45, 6-Fluoro-2-(6-(piperidin-1-yl)pyridin-3-yl)-1H-indole]

Ki [3]: 11 nM
Ki [4]: 24 nM
Compound: OC1CCN(c2ncc(-c3cc4ccccc4[nH]3)cn2)CC1 [Compound 52, 1-(5-(1H-Indol-2-yl)pyrimidin-2-yl)piperidin-4-ol]

Ki [3]: 21 nM
Ki [4]: 20 nM
Compound: OC1CCN(c2ncc(-c3cc4cc(F)ccc4[nH]3)cn2)CC1 [Compound 53, 1-(5-(5-Fluoro-1H-indol-2-yl)pyrimidin-2-yl)piperidin-4-ol]

Ki [3]: 45 nM
Ki [4]: 91 nM
Compound: OC1CCN(c2ncc(-c3cc4cc(F)ccc4o3)cn2)CC1 [Compound 49, 1-(5-(5-Fluorobenzofuran-2-yl)pyrimidin-2-yl)piperidin-4-ol]

Ki [12]: 53 nM
Compound: Fc1ccc2cc(-c3ccc(N4CCOCC4)nc3)[nH]c2c1 [Compound 46, 4-(5-(6-Fluoro-1H-indol-2-yl)pyridin-2-yl)morpholine]
